The record followed here is ChEMBL document CHEMBL4041521, “3-Aroylindoles display antitumor activity in vitro and in vivo: Effects of N1-substituents on biological activity” (Eur J Med Chem, 2017).

Test [1] is described as follows: Inhibition of HDAC activity in human HeLa cell nuclear extract using fluorometric substrate measured after 30 mins by fluorescence assay. It is filed as cell-based.
Test [2] has as its system A549. The test is described as follows: Antiproliferative activity against human A549 cells measured after 48 hrs by sulforhodamine-B assay. It is filed as functional, cell-based. As to conditions: A549, 48 h.
For test [3], the system named is HCT-116. The test can be described thus: Antiproliferative activity against human HCT116 cells measured after 48 hrs by sulforhodamine-B assay. It is filed as functional, cell-based. As to conditions: HCT-116, 48 h. (In general: Sulforhodamine B stains cellular protein and so reports cell mass.)
The species named for test [4] is Sus scrofa. The test can be described thus: Inhibition of purified porcine tubulin polymerization at 1 to 10 uM measured every 1 min for 30 mins.
In test [5] the target is Histone deacetylase 1 (Homo sapiens, UniProt Q13547). The test can be described thus: Inhibition of recombinant human HDAC1 using fluorogenic substrate by fluorescence assay.
Test [6] deals with Histone deacetylase 2 (Homo sapiens, UniProt Q92769). The test is described as follows: Inhibition of recombinant human HDAC2 using fluorogenic substrate by fluorescence assay.
Test [7] has as its target T1, Protein deacetylase HDAC6 (Homo sapiens, UniProt Q9UBN7).
T1 sequence (Q9UBN7 whole entry): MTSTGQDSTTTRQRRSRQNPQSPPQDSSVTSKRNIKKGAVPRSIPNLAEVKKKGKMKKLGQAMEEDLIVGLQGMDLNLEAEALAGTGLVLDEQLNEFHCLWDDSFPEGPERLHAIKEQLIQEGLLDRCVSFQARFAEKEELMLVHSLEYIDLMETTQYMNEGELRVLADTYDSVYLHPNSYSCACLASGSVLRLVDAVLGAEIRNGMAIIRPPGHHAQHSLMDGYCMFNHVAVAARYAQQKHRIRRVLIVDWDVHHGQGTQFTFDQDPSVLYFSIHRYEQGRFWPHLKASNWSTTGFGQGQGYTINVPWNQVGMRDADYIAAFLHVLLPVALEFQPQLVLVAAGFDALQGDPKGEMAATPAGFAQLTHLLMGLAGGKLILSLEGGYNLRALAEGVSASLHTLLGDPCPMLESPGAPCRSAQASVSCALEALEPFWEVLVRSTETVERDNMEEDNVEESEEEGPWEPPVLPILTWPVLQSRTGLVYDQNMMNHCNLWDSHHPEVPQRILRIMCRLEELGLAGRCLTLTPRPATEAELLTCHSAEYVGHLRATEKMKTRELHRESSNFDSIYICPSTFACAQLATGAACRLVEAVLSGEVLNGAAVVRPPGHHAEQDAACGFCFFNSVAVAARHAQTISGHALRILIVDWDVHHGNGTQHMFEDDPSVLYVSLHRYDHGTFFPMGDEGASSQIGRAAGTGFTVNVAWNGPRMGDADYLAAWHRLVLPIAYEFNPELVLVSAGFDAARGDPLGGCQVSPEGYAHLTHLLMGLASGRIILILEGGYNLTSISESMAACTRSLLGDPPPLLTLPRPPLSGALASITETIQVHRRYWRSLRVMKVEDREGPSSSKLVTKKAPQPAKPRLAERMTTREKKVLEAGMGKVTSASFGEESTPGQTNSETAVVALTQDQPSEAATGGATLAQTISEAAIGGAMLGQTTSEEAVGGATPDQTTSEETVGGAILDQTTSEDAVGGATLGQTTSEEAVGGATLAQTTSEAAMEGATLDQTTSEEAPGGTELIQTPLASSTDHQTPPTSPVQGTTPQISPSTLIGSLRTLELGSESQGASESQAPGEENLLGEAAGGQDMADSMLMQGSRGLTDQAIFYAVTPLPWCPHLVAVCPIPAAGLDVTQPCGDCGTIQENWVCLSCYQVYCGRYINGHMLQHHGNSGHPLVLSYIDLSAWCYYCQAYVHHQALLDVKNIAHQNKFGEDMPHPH
The test is described as follows: Inhibition of recombinant human HDAC6 using fluorogenic substrate by fluorescence assay.

Test [8] concerns the target Histone deacetylase 3 (Homo sapiens, UniProt O15379). The test can be described thus: Inhibition of recombinant human HDAC3 using fluorogenic substrate by fluorescence assay.
The target of test [9] is Histone deacetylase 5 (Homo sapiens, UniProt Q9UQL6). The test is described as follows: Inhibition of recombinant human HDAC5 using fluorogenic substrate by fluorescence assay.
Test [10] has as its target Histone deacetylase 9 (Homo sapiens, UniProt Q9UKV0). The test can be described thus: Inhibition of recombinant human HDAC9 using fluorogenic substrate by fluorescence assay.
Test [11] addresses T2, Polyamine deacetylase HDAC10 (Homo sapiens, UniProt Q969S8).
T2 sequence (Q969S8 whole entry): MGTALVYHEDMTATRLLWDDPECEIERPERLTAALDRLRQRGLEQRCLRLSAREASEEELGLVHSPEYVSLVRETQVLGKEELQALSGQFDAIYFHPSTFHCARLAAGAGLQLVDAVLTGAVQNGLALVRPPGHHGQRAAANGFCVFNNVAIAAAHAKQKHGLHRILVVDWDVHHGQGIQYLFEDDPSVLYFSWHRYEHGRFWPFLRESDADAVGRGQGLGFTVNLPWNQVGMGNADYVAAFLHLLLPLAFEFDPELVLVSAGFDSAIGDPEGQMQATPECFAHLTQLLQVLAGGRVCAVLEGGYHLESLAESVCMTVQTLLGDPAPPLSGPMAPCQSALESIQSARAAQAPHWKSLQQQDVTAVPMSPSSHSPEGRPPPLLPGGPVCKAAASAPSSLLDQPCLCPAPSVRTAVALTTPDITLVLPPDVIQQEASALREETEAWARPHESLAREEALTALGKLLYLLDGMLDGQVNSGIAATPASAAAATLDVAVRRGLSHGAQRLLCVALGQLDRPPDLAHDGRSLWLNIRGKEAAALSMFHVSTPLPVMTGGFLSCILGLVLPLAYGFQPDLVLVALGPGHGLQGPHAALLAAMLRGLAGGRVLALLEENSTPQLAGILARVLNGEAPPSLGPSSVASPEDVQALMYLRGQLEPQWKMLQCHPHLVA
The test is described as follows: Inhibition of recombinant human HDAC10 using fluorogenic substrate by fluorescence assay.

In test [12] the target is T3, Histone deacetylase 11 (Homo sapiens, UniProt Q96DB2).
T3 sequence (Q96DB2 whole entry): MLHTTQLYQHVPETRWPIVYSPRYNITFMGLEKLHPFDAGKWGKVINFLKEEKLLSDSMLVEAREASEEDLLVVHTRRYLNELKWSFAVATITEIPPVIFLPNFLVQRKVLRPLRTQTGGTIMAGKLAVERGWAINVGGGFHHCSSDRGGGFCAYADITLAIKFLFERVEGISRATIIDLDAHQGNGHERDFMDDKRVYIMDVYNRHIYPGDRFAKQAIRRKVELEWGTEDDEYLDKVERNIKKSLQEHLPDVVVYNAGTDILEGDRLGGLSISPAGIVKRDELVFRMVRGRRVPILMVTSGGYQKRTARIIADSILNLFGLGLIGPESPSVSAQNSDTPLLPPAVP
The test can be described thus: Inhibition of recombinant human HDAC11 using fluorogenic substrate by fluorescence assay.

Test [13] is filed under the species Homo sapiens. The test can be described thus: Inhibition of tubulin polymerization in human PC3 cells assessed as […] in MPM2 expression at 0.01 to 10 uM by Western blot analysis. It is filed as cell-based. On the technique in general: Immunoblotting shows a protein as a band on a membrane.

Calls of active or inactive are those of the source. No cut-off for these calls is given here.

Sequence of Histone deacetylase 9 (Q9UKV0 whole entry): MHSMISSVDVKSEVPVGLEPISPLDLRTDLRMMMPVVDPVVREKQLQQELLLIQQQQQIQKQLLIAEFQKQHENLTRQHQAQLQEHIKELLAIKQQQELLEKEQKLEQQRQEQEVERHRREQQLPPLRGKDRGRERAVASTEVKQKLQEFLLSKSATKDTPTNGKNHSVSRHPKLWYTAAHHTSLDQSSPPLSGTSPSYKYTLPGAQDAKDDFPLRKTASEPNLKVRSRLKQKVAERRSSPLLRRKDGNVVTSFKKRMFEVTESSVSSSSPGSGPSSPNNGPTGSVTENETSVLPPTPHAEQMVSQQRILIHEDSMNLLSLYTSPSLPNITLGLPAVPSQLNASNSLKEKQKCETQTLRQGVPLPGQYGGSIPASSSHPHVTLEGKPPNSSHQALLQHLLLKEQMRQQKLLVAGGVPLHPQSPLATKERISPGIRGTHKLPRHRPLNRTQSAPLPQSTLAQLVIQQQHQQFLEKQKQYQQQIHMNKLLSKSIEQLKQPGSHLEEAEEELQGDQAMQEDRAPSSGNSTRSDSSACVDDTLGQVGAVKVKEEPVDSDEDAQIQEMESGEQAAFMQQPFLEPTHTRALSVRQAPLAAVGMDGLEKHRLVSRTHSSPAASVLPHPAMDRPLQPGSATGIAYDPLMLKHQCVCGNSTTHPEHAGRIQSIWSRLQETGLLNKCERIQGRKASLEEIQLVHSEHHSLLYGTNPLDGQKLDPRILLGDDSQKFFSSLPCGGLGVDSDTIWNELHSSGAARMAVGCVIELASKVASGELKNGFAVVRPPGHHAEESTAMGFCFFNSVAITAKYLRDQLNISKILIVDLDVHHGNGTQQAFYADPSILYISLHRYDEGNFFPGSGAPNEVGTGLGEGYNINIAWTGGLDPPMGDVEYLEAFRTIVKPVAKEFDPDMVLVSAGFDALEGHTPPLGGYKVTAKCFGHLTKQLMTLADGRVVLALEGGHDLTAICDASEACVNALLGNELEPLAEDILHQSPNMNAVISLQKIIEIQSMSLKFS
Sequence of Histone deacetylase 2 (Q92769 whole entry): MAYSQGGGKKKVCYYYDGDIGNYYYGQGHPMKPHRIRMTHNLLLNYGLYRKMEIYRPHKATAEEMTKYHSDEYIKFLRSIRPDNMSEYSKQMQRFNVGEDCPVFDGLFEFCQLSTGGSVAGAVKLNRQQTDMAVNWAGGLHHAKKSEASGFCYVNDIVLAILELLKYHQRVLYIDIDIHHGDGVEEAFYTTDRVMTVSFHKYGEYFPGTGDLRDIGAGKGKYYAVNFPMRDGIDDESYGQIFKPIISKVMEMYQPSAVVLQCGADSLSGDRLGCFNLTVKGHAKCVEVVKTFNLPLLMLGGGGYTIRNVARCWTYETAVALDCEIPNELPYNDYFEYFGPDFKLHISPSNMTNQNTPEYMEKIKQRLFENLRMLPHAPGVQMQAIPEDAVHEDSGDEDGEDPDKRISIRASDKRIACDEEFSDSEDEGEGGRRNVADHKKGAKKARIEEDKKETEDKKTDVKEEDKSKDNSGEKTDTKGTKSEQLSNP
Sequence of Histone deacetylase 1 (Q13547 whole entry): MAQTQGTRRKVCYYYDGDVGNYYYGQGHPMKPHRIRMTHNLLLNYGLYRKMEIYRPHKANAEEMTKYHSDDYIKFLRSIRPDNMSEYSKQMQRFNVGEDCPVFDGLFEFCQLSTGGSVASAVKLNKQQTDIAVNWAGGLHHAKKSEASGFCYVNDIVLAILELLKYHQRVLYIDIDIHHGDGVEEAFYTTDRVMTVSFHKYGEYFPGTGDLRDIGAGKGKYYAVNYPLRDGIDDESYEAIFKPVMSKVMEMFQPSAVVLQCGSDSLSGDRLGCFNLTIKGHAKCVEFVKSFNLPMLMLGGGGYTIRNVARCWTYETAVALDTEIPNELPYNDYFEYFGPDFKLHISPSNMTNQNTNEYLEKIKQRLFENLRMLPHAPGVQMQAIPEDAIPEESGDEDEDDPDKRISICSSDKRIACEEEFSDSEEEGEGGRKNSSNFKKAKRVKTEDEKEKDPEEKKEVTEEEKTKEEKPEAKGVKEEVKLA
Sequence of Histone deacetylase 3 (O15379 whole entry): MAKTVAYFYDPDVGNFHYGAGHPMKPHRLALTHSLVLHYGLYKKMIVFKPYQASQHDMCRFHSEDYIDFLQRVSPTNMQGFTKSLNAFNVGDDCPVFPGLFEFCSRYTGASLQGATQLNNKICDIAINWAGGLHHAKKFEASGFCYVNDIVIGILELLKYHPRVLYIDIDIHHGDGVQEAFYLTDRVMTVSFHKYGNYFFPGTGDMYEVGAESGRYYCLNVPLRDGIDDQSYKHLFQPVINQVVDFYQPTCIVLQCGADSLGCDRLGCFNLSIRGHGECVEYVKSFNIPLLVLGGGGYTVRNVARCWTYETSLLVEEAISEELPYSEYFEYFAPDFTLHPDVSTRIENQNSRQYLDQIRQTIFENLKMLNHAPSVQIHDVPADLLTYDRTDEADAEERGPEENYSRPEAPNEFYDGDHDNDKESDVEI
Sequence of Histone deacetylase 5 (Q9UQL6 whole entry): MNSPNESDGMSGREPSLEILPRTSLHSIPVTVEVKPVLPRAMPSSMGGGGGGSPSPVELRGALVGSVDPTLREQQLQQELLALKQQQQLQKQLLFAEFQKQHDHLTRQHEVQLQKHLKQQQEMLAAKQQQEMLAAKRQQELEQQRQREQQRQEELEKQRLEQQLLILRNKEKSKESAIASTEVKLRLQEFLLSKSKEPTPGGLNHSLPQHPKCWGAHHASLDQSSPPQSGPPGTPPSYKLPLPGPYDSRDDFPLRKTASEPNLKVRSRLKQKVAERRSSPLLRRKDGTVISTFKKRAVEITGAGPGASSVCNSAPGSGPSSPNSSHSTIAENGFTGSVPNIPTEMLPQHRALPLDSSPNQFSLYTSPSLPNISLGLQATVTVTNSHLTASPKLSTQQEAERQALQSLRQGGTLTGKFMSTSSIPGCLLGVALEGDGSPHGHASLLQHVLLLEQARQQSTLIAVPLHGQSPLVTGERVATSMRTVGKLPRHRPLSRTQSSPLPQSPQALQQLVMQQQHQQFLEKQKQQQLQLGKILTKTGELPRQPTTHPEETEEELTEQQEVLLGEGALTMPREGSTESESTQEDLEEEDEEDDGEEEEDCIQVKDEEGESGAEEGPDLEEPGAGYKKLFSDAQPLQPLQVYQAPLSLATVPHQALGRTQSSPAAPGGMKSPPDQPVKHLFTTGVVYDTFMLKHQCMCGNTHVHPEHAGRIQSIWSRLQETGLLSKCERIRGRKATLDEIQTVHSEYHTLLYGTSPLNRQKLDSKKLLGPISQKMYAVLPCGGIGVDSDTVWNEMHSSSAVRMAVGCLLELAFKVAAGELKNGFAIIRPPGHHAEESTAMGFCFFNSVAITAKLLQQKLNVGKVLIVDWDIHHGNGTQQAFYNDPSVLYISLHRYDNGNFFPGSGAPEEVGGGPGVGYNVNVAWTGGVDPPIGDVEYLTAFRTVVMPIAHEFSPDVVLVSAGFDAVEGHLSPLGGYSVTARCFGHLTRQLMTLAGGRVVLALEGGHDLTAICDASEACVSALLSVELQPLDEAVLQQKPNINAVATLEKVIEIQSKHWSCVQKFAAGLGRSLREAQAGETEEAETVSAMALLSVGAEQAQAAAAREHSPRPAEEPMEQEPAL

What is called IC50 is the midpoint of a concentration-inhibition curve. As to `COc1ccc2c(C(=O)c3cc(OC)c(OC)c(OC)c3)cn(S(=O)(=O)c3cccc(/C=C/C(=O)NO)c3)c2c1`, the IC50 was found to be 135 nM in [1]; 72.5 nM in test [2]; 43.9 nM in test [3]; 468 nM in test [5]; 3220 nM in test [6]; 275 nM in test [7]. Moreover, the IC50 entry in test [8] is “Not Active”; in test [9], 356000 nM; in test [10], “Not Active”; in [11], “Not Active”; in [12], 8870 nM. The inhibition entry in test [4] and in test [13] was “Active” each time.

In the case of `COc1ccc2c(C(=O)c3cc(OC)c(OC)c(OC)c3)cn(Cc3ccc(C(=O)NO)cc3)c2c1`, the IC50 in test [1] was found to be 611 nM; in [2] it was 206 nM; in test [3], 485 nM; in test [5], 573 nM; in test [6], 1410 nM; in [7], 64.5 nM. In addition, the half-maximal inhibitory concentration (IC50) in [8] (read-out: IC50) was 6530 nM; in test [9], 1030 nM; in test [10] (read-out: IC50) it was 1680 nM; in test [11] (read-out: IC50), 8230 nM; in test [12] it was 651 nM. The inhibition result in test [4] and in test [13] was “Active” in each case.
